These results are taken from publication PMC3923778 (PLoS Currents, 2014).

Assay [1] concerns R6/2 mice. In words: T2-MRI brain volumetry. It counts as in vivo, mouse. To be noted: chronic administration, 13 weeks. Here is the method: MRI analysis was performed for all mice at the age of 13 weeks in a horizontal 7T magnet with bore size 160 mm (Magnex Scientific Ltd., Oxford, UK) equipped with Magnex gradient set (max. gradient strength 400 mT/m, bore 100 mm) interfaced to a Varian DirectDrive console (Varian, Inc., Palo Alto, CA) using a volume coil for transmission and surface phased array coil for receiving (Rapid Biomedical GmbH, Rimpar, Germany). Isoflurane -anesthetized mice were fixed to a head holder and positioned in the magnet bore in a standard orientation relative to gradient coils. Rectal temperature (TC-1000 Temperature Controller, CWE Inc., Ardmore, PA, USA) and respiration (ECG Trigger Unit, Rapid Biomedical GmbH) were monitored throughout the study and the body temperature was kept at 36-37°C. […]
All values are presented as mean ± Standard Error of Mean (SEM), and differences are considered to be statistically significant at the p < 0.05 level. […] Differences between group means were analyzed by 1-way-ANOVA followed by Dunnett’s test (comparison to the control (=vehicle treated TG mice) group). The acquisition of the Cued two-choice swim test was analyzed using Fisher’s exact test.

In assay [2] the test system is R6/2 mice. In words: Grip Strength. The class given is in vivo, mouse. Also on record: key to Grip Strength: direction of significant change vs Vehicle-treated R6/2 mice: ▲: significant enhancement compared to Vehicle-treated R6/2 mice (One-way ANOVA, Dunnett’s post-hoc); ▼: significant impairment compared to Vehicle-treated R6/2 mice (One-way ANOVA, Dunnett’s post-hoc). Here is the method:
Motor function testing including open field and rear climbing tests were commenced at 4 weeks of age and continued at weeks 6, 8 and 12, for grip strength test at age weeks 4 and 12 and for rotarod at age weeks 4, 6 and 8. Compound treatment was started at 4 weeks of age after the baseline behavioral tests.
Grip strength measurement was performed at age weeks 4 and 12. The mice were tested on Monday afternoons. Mice were taken to the experimental room and, one at a time, were placed on the grip-strength apparatus (San Diego Instruments, San Diego, USA) in such a way that the animal grabs a small mesh grip with its forepaws. The entire apparatus is placed on a table top for testing. Animals are lowered to the platform and then slowly pulled away from the handle by the tail until the animal releases the handle. The equipment automatically measures the strength of the animal’s grip in grams. Five scores were recorded per animal in consecutive sequence. Mice were returned to their home cage after testing.
All values are presented as mean ± Standard Error of Mean (SEM), and differences are considered to be statistically significant at the p < 0.05 level. Statistical analysis was performed using StatsDirect statistical software. Differences between group means were analyzed by 1-way-ANOVA followed by Dunnett’s test (comparison to the control (=vehicle treated TG mice) group). The acquisition of the Cued two-choice swim test was analyzed using Fisher’s exact test.

For a further assay, the system named is R6/2 hippocampal slices. Nature of the assay: Electrophysiological evaluation in R6/2 hippocampal slices (MEA, fEPSP). Also on record: species or system mouse. Here is the method:
Electrophysiology was conducted at Neuroservice SARL, France. All animals were group housed under environmentaly enriched conditions and used in accordance with European legislations for animal care. On the day of recording, 7-8 week old R6/2 or wild type littermate (WT) mice were decapitated without anaesthesia followed by rapid brain removal into ice-cold oxygenated buffer (in mM; saccharose, 250, KCl 2, NaH2PO4 1.2, MgCl2 7, CaCl2 0.5, NaHCO3 26, glucose 11). Hippocampal slices (350 μm thickness) were prepared with a MacIlwain tissue-chopper and incubated at room temperature (RT, 18 – 22 °C) and allowed to recover for at least 1 h prior to recording in oxygenated Artificial Cerebro-Spinal Fluid (ACSF) of the following composition: (in mM; NaCl, 126, KCl 3.5, NaH2PO4 1.2, MgCl2 1.3, CaCl2 2, NaHCO3 25, D-glucose 11, pH 7.2). For experiments, individual slices were transferred to a 3-dimensional 60 electrode MEA chip (Ayanda Biosystems, Lausanne, Switzerland) and continuously perfused with oxygenated (95% O2–5% CO2) ACSF at 37 °C at a rate of 3 mlmin^-1, allowing for complete solution exchange within the MEA chamber 20 s following solution switches (MEA chamber volume: ~1 mL).
For stimulation, one MEA electrode underlying the Schaeffer collaterals at the CA3/CA1 interface was chosen visually as the stimulating electrode. The stimulus consisted of a monopolar biphasic current pulse (negative for 60 μs and then positive for 60 μs) applied at a frequency of 0.03 Hz. Recordings of resultant field excitatory postsynaptic potentials (fEPSPs) from electrodes underlying the CA1 region were made using MultiChannel Systems MCS GmbH software (MC Stim, MS Rack) and hardware composed of a 4-channel stimulus generator and a 60-channel amplifier head-stage connected to a 60-channel A/D card (Reutlingen, Germany). […] Paired pulse facilitation (PPF) was then assessed at 40 % of the maximal fEPSP amplitude response (as defined from the I/O curve) by delivering two pulses to the stimulating electrode with decreasing inter-stimulus intervals (ISI of 300 ms, 200 ms, 100 ms, 50 ms, 25 ms). PPF was performed 4 times per slice, and the resultant 4 fEPSP amplitudes at a given ISI were averaged together. […]
For measurement of long term potentiation (LTP), basal fEPSPs were recorded at 0.03 Hz for ten minutes at 40 % of maximal FEPSP amplitude to verify the baseline stability. […] Potentiation of fEPSP amplitude was then monitored for an additional 60 minute period. […]
For each slice, the fEPSP values at each electrode recorded within the CA1 region were averaged to obtain a single fEPSP value per slice per timepoint. […] Data was analysed using Repeat Measure Two-way ANOVA followed by a post hoc Bonferroni test to analyse statistical significance of single data points using Prism 5.0 software. […]

[3] abbreviates: Age Week 12, 30 mg/kg p.o., BID.

SMILES strings stand for the structures. Entries after “also recorded” stand apart in the source; their conditions may differ.

For `CN1C(=O)c2nc(Cc3ccc(C(F)(F)F)cc3)[nH]c2N2C1=N[C@H]1CCC[C@H]12` [SCH-51866, (+)-cis-5,6a,7,8,9,9a-hexahydro-2-[4-[trifluro-methyl]phenylmethyl]-5-methyl-cylopent[4,5]imidazo [2,1-b]purin-4(3H)one], the “brain volume, cortex (MRI)” value in the assay with R6/2 mice [1] is reported as “no improvement in brain volume”. Besides, in the assay on R6/2 mice [1], the “brain volume, striatum (MRI)” value is “no improvement in brain volume”. The “Grip strength, effect in words” value with R6/2 mice [2] (30 mg/kg, 12 weeks of age, vs R6/2 vehicle group) is “improvement in grip strength; also recorded: positive effect in improving grip strength; also recorded: significantly improved over the R6/2 vehicle group”. The “Grip Strength: p vs Vehicle-treated R6/2 mice” value was “ANOVA: p=0.612” in the assay on R6/2 mice [2] (Age Week 4, 10 mg/kg p.o., BID, ANOVA); “ANOVA: p=0.612” in the assay on R6/2 mice [2] (Age Week 4, 30 mg/kg p.o., BID, ANOVA); “p=0.860” in the assay on R6/2 mice [2] (Age Week 12, 10 mg/kg p.o., BID); 0.006 with R6/2 mice [2] (setting [3]). Besides, in the assay on R6/2 mice [2] (setting [3]), the “Grip Strength: direction of significant change vs Vehicle-treated R6/2 mice” value is recorded as “▲”. Also, in the assay on R6/2 hippocampal slices (3 µM, R6/2 slices), the “basal synaptic transmission (input/output characteristics)” value was “no significant effect; also recorded: did not significantly reduce”. Besides, the “paired pulse facilitation (PPF)” value in the assay with R6/2 hippocampal slices (3 µM, R6/2 slices) is “restored R6/2 paired-pulse facilitation (PPF) to WT levels; also recorded: significantly restored to WT levels”. For the same compound, the “long-term potentiation (LTP)” value in the assay with R6/2 hippocampal slices (3 µM, R6/2 slices, vs ACSF alone) was “did not restore the deficit; also recorded: did not result in an amplitude of LTP significantly different”. Also, in the assay on R6/2 hippocampal slices (concentration sufficient to fully inhibit the PDE1 enzyme), the “electrophysiological parameters in hippocampal slices, overall” value is given as “does not improve”.
